Data reported in patent publication US20100144767A1, “Use of sodium channel blockers for the treatment of visceral pain or pain caused by cancer treatment” (priority 2005, published 2010).
Where “and” joins values, the source holds several entries; their conditions need not be identical. Equal entries are not always repeated.

Columns and labels:
[1] = test system: moderate to severe pain associated with cancer; parameters: species or system human; conditions: in vivo
[2] = test system: capsaicin-induced nociceptive behaviours; test: Visceral pain model: capsaicin solution delivered to the colon, nociceptive behaviours counted for 30 min; parameters: species or system mice; conditions: mouse, in vivo
[3] = test system: pain (visceral pain, pain caused by therapy); conditions: human, in vivo
[4] = test system: carrageenan-induced inflammatory pain; parameters: species or system SD rats; conditions: rat, in vivo
[5] = test system: formalin-induced inflammation; parameters: species or system rats; conditions: rat, in vivo
[6] = test system: postoperative pain (incised hind paw withdrawal latency); test: Postoperative pain, thermal stimulus, four days of pre-treatment; format: in vivo, rats
Experimental: The studied compounds (dypirone at 40 mg/kg and tetrodotoxin at 0, 3, 4 μg/kg) were administered subcutaneously to groups of 12 male rats twice daily for 4 days. On the morning of Day 5, an incision was made in the hind paw of the rats. One hour later, the compounds were administered again and 30 minutes later, a thermal stimulus was applied in the incised paw and the latency to withdraw the hind paws was recorded.

[7] = test system: postoperative pain (incised hind paw withdrawal latency); test: Postoperative pain, thermal stimulus, acute treatment (hind paw incision); format: in vivo, rats; conditions: Rattus norvegicus, iv

Q: Which results are given for `N=C1NC(O)C2C3OC4(O)OC(C(O)C2(N1)C4O)C3(O)CO` (stereo not drawn) [Tetrodotoxin, octahydro-12-(hydroxymethyl)-2-imino-5,9:7,10a-dimethano-10aH-[1,3]dioxocino[6,5-d]pyrimidine-4,7,10,11,12-pentol]?
A: impression of change [1]: 1; total response day [1]: 66 days; effects on capsaicin-induced nociceptive behaviours versus control ([2]; sc): 30% and 58.8%; analgesic response [3]: no analgesic response; decrease in current and average pain intensity [3]: about 2 point; most pain relief percentage [3]: 89%; pain score [3]: 7 /10 and 4 /10; relief of pain [3]: complete relief of their pain; effect upon the degree of inflammation [4]: does not have any effect; nociceptive threshold, Randall-Selitto test (paw pressure) ([4]; sc): higher nociceptive threshold; effective dosage [5]: 2.5 µg/mg; antinociceptive activity ([6]; rat, in vivo): 35% and 39%

Q: How did the “effects on capsaicin-induced nociceptive behaviours versus control” value [2] turn out when `CN1CC[C@]23c4c5ccc(O)c4O[C@H]2[C@@H](O)C=C[C@H]3[C@H]1C5` [Morphine] was run?
A: Its value is 54.8% and 92.5% and 100%.

Q: What about the ED50 [7] of the same compound?
A: The ED50 was 0.59 mg/kg.

Q: Which antinociceptive activity ([6]; 40 mg/kg s.c. b.i.d., four days of pre-treatment) does the source give for `Cc1c(N(C)CS(=O)(=O)[O-])c(=O)n(-c2ccccc2)n1C.[Na+]` [Dypirone, reference compound] here?
A: The antinociceptive activity was 40%.
